Measurements taken from patent US20240262844A1, “PYRIDINIUM SALTS AND METHODS OF USE” (UNIVERSITY OF WYOMING, priority 2023, published 2024).
Structures can show the parent of a compound that is named as a salt.

Key:
[1] = biological target: T1, chymotrypsinogen (25 kDa) (Bos taurus, UniProt P00766); experiment: Photochemical labeling of chymotrypsinogen (LC/MS, MS-MS); assay type: biochemical, bovine; conditions: digestion/MS-MS
T1 construct: α-Chymotrypsinogen A from bovine pancreas; purchased Sigma Aldrich; host or cells: bovine pancreas
Description: (§1) General Procedure B: Photochemical Irradiation of Peptides and Proteins: To a 2 mL Pyrex LC/MS vial (Thermo model #03-391-39) were sequentially added solutions containing the desired biomolecule, glutathione (GSH), pyridinium salt, and ammonium acetate (NH4OAc). The resulting solution was diluted to a final volume of 500 μL and then sparged using nitrogen for a minimum of 30 minutes prior to irradiation. The actively sparging solution was then placed in an EvoluChem™ PhotoRedOx Box photoreactor that was equipped with a Kessil, PR160 427 nm LED Lamp and was then irradiated (100% lamp intensity) for the designated time at room temperature while maintaining active sparging. The resultant reaction mixture was then analyzed directly by LC/MS. Analysis of labeling outcomes using LC/MS was performed either by extracted ion chromatogram intensities (method A) or by integrating the area under the peaks associated with peptide content (method B). These values were totaled, and estimated percentages were assigned according to relative intensities of peaks or ion counts.
Labeling of Chymotrypsinogen with pyridinium salt 2a (Chymotrypsinogen-2a Conjugate). […] The reaction mixture was directly analyzed by LC/MS using method A and was estimated to have proceeded with 90% conversion with a 20.7:8.3:1 mono:di:tri labeled ratio and 4% glutathionylation of all unlabeled and labeled protein content. […]

Leuprolide (1.2 kDa) = experiment: Photochemical labeling of leuprolide (LC/MS); assay type: biochemical; conditions: 10 μM leuprolide, 100 μM pyridinium salt, 300 μM glutathione, 20 mM NH4OAc pH 6.9, 427 nm, 30 minutes
Description: as §1
Labeling of Leuprolide with Pyridinium Salt 2a (Leuprolide-2a Conjugate). […] The reaction mixture was analyzed directly by LC/MS using method B and was estimated to have proceeded with 91% conversion, a >20:1 mono:di labeled ratio, and 4% of +1 label+glutathionylation. […]

With `COC(=O)N(C)[n+]1c(C)cc(-c2ccc3cc(OC)ccc3c2)cc1C` [Pyridinium salt 2a, 1-((methoxycarbonyl)(methyl)amino)-4-(6-methoxynapthalen-2-yl)-2,6-dimethylpyridin-1-ium tetrafluoroborate] the “detectable locations of labeling” value [1] was “Trp-215 and Trp-237” and the conversion (Leuprolide (1.2 kDa)) was 91%.
